# Several values for one entry are separate records, joined by “and”; a condition that tells them apart may be missing. Equal entries are not always repeated. Where two headings read alike, the source gives them in different places.
# Key:
# [1] = target: T1, KEAP1 Kelch domain (Homo sapiens, UniProt Q14145); assay: Fluorescence polarization counter-screen, KEAP1 with TAMRA-NRF2 peptide; assay type: binding; conditions: for inhibitory effect in the KEAP1 counter-screening assay: concentrations less than 20 µM; for Fluorescence polarization signal: KEAP1, replicate wells
# T1 construct: HIS6 (N); made in house; host or cells: Escherichia coli BL21(DE3)
# T1 sequence (Q14145 321-609 limits assumed): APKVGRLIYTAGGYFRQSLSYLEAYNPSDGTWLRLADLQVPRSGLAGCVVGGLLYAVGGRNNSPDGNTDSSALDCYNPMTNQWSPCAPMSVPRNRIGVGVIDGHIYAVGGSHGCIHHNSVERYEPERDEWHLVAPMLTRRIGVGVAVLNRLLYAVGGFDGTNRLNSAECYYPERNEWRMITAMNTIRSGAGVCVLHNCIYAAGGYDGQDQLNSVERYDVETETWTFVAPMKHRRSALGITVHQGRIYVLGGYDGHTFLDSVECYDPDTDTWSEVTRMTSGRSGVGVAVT
# [2] = target: BRD4 (Homo sapiens, UniProt O60885); assay: Cell-based HiBiT BRD4 degradation assay in HEK293T; design: expressed in transfected cells; host or cells: HEK293T; conditions: for Relative BRD4 levels (HiBiT luminescence): replicate wells; for DC50: BRD4-HiBiT, HEK293T;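 on all read-outs here: HEK293T cells transiently expressing HiBiT-tagged BRD4, exposed to serially diluted compounds, then lysed for a luminescence read-out that tracks the amount of cellular BRD4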
compound,measurement,setting,value
Cc1cc(NS(=O)(=O)c2ccc(Nc3nc(-c4c(C)nc5ccccn45)cs3)cc2)no1 [compound 3],inhibitory effect in the KEAP1 counter-screening assay,[1],did not have an inhibitory effect
Cc1ccn2c(-c3csc(Nc4ccc(S(=O)(=O)Nc5cc(C)on5)cc4)n3)c(C)nc2c1 [compound 4],inhibitory effect in the KEAP1 counter-screening assay,[1],did not have an inhibitory effect
O=C(O)c1cc(Cl)cc2c1NC(c1cccc(OC(F)(F)F)c1)C1C3CCC(C3)C21 (stereo not drawn) [compound 6],Fluorescence polarization signal,[1]; 0.169351 nM,16 and 15 and 25
same,Fluorescence polarization signal,[1]; 0.508053 nM,18 and 23 and 21
same,Fluorescence polarization signal,[1]; 1.52416 nM,13 and 22 and 29
same,Fluorescence polarization signal,[1]; 4.57247 nM,22 and 15 and 21
same,Fluorescence polarization signal,[1]; 13.7174 nM,20 and 23 and 18
same,Fluorescence polarization signal,[1]; 41.1523 nM,29 and 24 and 17
same,Fluorescence polarization signal,[1]; 123.457 nM,18 and 24 and 30
same,Fluorescence polarization signal,[1]; 370.37 nM,25 and 12 and 20
same,Fluorescence polarization signal,[1]; 1111.11 nM,21 and 16 and 26
same,Fluorescence polarization signal,[1]; 3333.33 nM,15 and 23 and 32
same,Fluorescence polarization signal,[1]; 10000 nM,23 and 26 and 17
same,inhibitory effect in the KEAP1 counter-screening assay,[1],no inhibitory effect
same,EC50,[1]; in figure,> 20 µM
"COC(=O)c1cc(Cl)cc2c1NC(c1cccc(OCCOCCOCCNC(=O)CC3N=C(c4ccc(Cl)cc4)c4c(sc(C)c4C)-n4c(C)nnc43)c1)C1C3CCC(C3)C21 [compound 7, Methyl 2-chloro-6-(3-(2-(2-(2-(2-((S)-4-(4-chlorophenyl)–2,3,9-trimethyl-6H-thieno[3,2 f][1,2,4]triazolo[4,3 a][1,4]diazepin-6-yl)acetamido)ethoxy)ethoxy)ethoxy)phenyl)-5,6,6a,7,8,9,10,10a-octahydro-7,10-methanophenanthridine-4-carboxylate]",Relative BRD4 levels (HiBiT luminescence),"[2]; 4 hr, 0.338702 nM",1.014 and 0.8842 and 1.103
same,Relative BRD4 levels (HiBiT luminescence),"[2]; 4 hr, 1.01611 nM",0.9863 and 1.241 and 1.012
same,Relative BRD4 levels (HiBiT luminescence),"[2]; 4 hr, 3.04832 nM",0.8761 and 0.9572 and 0.9491
same,Relative BRD4 levels (HiBiT luminescence),"[2]; 4 hr, 9.14495 nM",0.9491 and 0.7788 and 0.8761
same,Relative BRD4 levels (HiBiT luminescence),"[2]; 4 hr, 27.4348 nM",0.9248 and 1.014 and 0.9978
same,Relative BRD4 levels (HiBiT luminescence),"[2]; 4 hr, 82.3045 nM",0.9816 and 0.9329 and 0.9248
same,Relative BRD4 levels (HiBiT luminescence),"[2]; 4 hr, 246.914 nM",0.9653 and 0.868 and 0.941
same,Relative BRD4 levels (HiBiT luminescence),"[2]; 4 hr, 740.741 nM",0.7544 and 0.7706 and 0.8518
same,Relative BRD4 levels (HiBiT luminescence),"[2]; 4 hr, 2222.22 nM",0.7382 and 0.5841 and 0.7139
same,Relative BRD4 levels (HiBiT luminescence),"[2]; 4 hr, 6666.67 nM",0.3732 and 0.3975 and 0.4462
same,Relative BRD4 levels (HiBiT luminescence),"[2]; 4 hr, 20000 nM",0.3569 and 0.3164 and 0.3326
same,Relative BRD4 levels (HiBiT luminescence),"[2]; 24 hr, 0.338702 nM",1.478 and 0.7263 and 0.7659
same,Relative BRD4 levels (HiBiT luminescence),"[2]; 24 hr, 1.01611 nM",0.6909 and 0.8141 and 0.7927
same,Relative BRD4 levels (HiBiT luminescence),"[2]; 24 hr, 3.04832 nM",0.6888 and 0.7059 and 0.7509
same,Relative BRD4 levels (HiBiT luminescence),"[2]; 24 hr, 9.14495 nM",0.6963 and 0.9298 and 0.7745
same,Relative BRD4 levels (HiBiT luminescence),"[2]; 24 hr, 27.4348 nM",0.7895 and 0.7691 and 1.0519
same,Relative BRD4 levels (HiBiT luminescence),"[2]; 24 hr, 82.3045 nM",0.858 and 0.8752 and 0.9459
same,Relative BRD4 levels (HiBiT luminescence),"[2]; 24 hr, 246.914 nM",0.8891 and 0.8666 and 0.9223
same,Relative BRD4 levels (HiBiT luminescence),"[2]; 24 hr, 740.741 nM",1.234 and 1.1783 and 1.43
same,Relative BRD4 levels (HiBiT luminescence),"[2]; 24 hr, 2222.22 nM",0.8473 and 0.8591 and 0.9544
same,Relative BRD4 levels (HiBiT luminescence),"[2]; 24 hr, 6666.67 nM",0.1778 and 0.1692 and 0.1789
same,Relative BRD4 levels (HiBiT luminescence),"[2]; 24 hr, 20000 nM",0.1875 and 0.1318 and 0.1307
same,DC50,"[2]; 4 hr, read-out: DC50 (4 hr)",2.6 µM and 2.63 µM
same,DC50,"[2]; 24 hr, read-out: DC50 (24 hr)",4 µM
"COC(=O)c1cc(Cl)cc2c1NC(c1cccc(OCc3ccc(-c4ccc(NC(=O)C[C@@H]5N=C(c6ccc(Cl)cc6)c6c(sc(C)c6C)-n6c(C)nnc65)cc4)cc3)c1)C1C3CCC(C3)C21 (stereo partly drawn) [compound 9, Methyl 2-chloro-6-(3-((4'-(2-((S)-4-(4-chlorophenyl)-2,3,9-trimethyl-6H-thieno[3,2 f][1,2,4]triazolo[4,3 a][1,4]diazepin-6-yl)acetamido)-[1,1'-biphenyl]-4-yl)methoxy)phenyl)--5,6,6a,7,8,9,10,10a-octahydro-7,10-methanophenanthridine-4-carboxylate]",DC50,"[2]; 4 hr, read-out: DC50 (4 hr)",> 20 µM
same,DC50,"[2]; 24 hr, read-out: DC50 (24 hr)",> 20 µM
same,BRD4 degradation,"[2]; any concentration (<20 µM), 4 or 24 hr",did not promote BRD4 degradation

# Source: PMC12169847, “Targeted protein degradation by KLHDC2 ligands identified by high-throughput screening” (eLife, 2025)
